Where two headings read alike, the source gives them in different places.
What was measured:
[1] = tested on: MDR P. falciparum strain W2; assay: In vitro chemosensitization to chloroquine (RMI), strain W2; assay type: cell-based
[2] = tested on: CQ-sensitive D6 strain of P. falciparum; assay: In vitro antimalarial activity, SYBR Green MSF assay, D6; assay type: cell-based; details: Plasmodium falciparum, D6
Source text: (§1) This example describes the screening of disclosed antimalarial acridones against the CQ-sensitive D6 strain and the MDR Dd2 strain of P. falciparum for in vitro antimalarial activity.

[3] = tested on: MDR Dd2 strain of P. falciparum; assay: In vitro antimalarial activity, SYBR Green MSF assay, Dd2; assay type: cell-based; details: Plasmodium falciparum, DD2
Source text: as §1
As shown in Table 3 and Table 4, selected soluble acridone derivatives were screened for antimalarial activity against the CQ-sensitive D6 and the MDR Dd2 strains of P. falciparum.

[4] = tested on: murine splenic lymphocytes (MSLCs); assay: Cytotoxicity by Alamar Blue assay; details: for IC50: cytotoxicity; for IVTI: ratio of cytotoxicity IC50 (vs. MSLCs) to antimalarial IC50 against D6
[5] = Table 3, MSF assay, read-out: IC50 P. falciparum D6
[6] = Table 3, MSF assay, read-out: IC50 P. falciparum Dd2
[7] = Table 2, average of 4 independent experiments, read-out: IC50, D6
[8] = Table 2, average of 4 independent experiments, read-out: IC50, Dd2
[9] = Table 4, read-out: IC50 P. falciparum D6
[10] = Table 4, read-out: IC50 P. falciparum Dd2

| SMILES | IC50 [2, 5] | IC50 [3, 6] | IC50 [2, 9] | IC50 [3, 10] | further results |
| --- | --- | --- | --- | --- | --- |
| CCN(CC)CCCCCCn1c2ccccc2c(=O)c2ccccc21 [A6] |  |  |  |  | potentiation of the IC50 of CQ ([1]; 5 μM acridone, both MDR strains (W2, Dd2)): over 90 fold; sensitivity of W2 and Dd2 to CQ (chemosensitization, in words) [1]: increased |
| CCN(CC)CCCn1c2ccccc2c(=O)c2ccccc21 [A3] |  |  |  |  | sensitivity of W2 and Dd2 to CQ (chemosensitization, in words) [1]: increased |
| CCN(CC)CCOc1ccc2c(=O)c3ccc(OCCN(CC)CC)cc3[nH]c2c1 [T4] | 398 nM | 759 nM |  |  | IC50 ([4]; read-out: IC50 MSLCs, Table 3): > 25000 nM |
| CCN(CC)CCOc1ccc2c(=O)c3ccc(F)cc3n(CCN(CC)CC)c2c1 [T11.5] |  |  | 196 nM | 359 nM |  |
| CCN(CC)CCOc1ccc2c(=O)c3ccc(F)cc3[nH]c2c1 [T7] | 90 nM | 49 nM |  |  |  |
| CCN(CC)CCCCn1c2ccccc2c(=O)c2ccccc21 [A4] |  |  |  |  | sensitivity of W2 and Dd2 to CQ (chemosensitization, in words) [1]: increased |
| CCN(CC)CCn1c2ccccc2c(=O)c2ccccc21 [A2] |  |  |  |  | sensitivity of W2 and Dd2 to CQ (chemosensitization, in words) [1]: increased |
| CCN(CC)CCCCCCCCn1c2ccccc2c(=O)c2ccccc21 [A8] |  |  |  |  | sensitivity of W2 and Dd2 to CQ (chemosensitization, in words) [1]: increased |
| CCN(CC)CCCCCn1c2ccccc2c(=O)c2ccccc21 [A5] |  |  |  |  | sensitivity of W2 and Dd2 to CQ (chemosensitization, in words) [1]: increased |
| CCN(CC)CCOc1ccc2c(=O)c3ccc(Br)cc3[nH]c2c1 [T8] | 12 nM | 19 nM |  |  |  |

More lines, main results first:

| IC50 [2, 5] | IC50 [3, 6] | IC50 [2, 9] | IC50 [3, 10] | SMILES | further results |
| --- | --- | --- | --- | --- | --- |
| > 2500 nM | > 2500 nM |  |  | CCN(CC)CCOc1ccc2c(=O)c3ccc(Cl)cc3oc2c1 [TX2, 3-(2-diethylaminoethoxy)-6-chloro-xanthone] | IC50 [2, 7]: > 2500 nM; IC50 [3, 8]: > 2500 nM; IC50 ([4]; read-out: IC50, MSLCs, Table 2): > 25000 nM; IC50 ([4]; read-out: IC50 MSLCs, Table 3): > 25000 nM |
|  |  | 33 nM | 60 nM | CCN(CC)CCOc1ccc2c(=O)c3ccc(Cl)cc3n(CCN3CCCC3)c2c1 [T9.5] |  |
| 56 nM | 63 nM |  |  | CN(C)CCOc1ccc2c(=O)c3ccc(Cl)cc3[nH]c2c1 [T9] |  |
|  |  | 47 nM | 100 nM | CCN(CC)CCCn1c2cc(Cl)ccc2c(=O)c2ccc(OCCN(CC)CC)cc21 [T4.5] | IC50 ([4]; read-out: IC50 MSLCs, Table 4): > 25000 nM |
| 0.1 nM | 0.1 nM |  |  | O=C1C(O)=C([C@H]2CC[C@H](c3ccc(Cl)cc3)CC2)C(=O)c2ccccc21 [ATV, Atovaquone, reference compound] | IC50 ([4]; read-out: IC50 MSLCs, Table 3): > 25000 nM |
|  |  | 637 nM | 595 nM | CCN(CC)CCOc1ccc2c(=O)c3ccccc3n(CCN(CC)CC)c2c1 [T10.5] |  |
|  |  | 76 nM | 109 nM | CCN(CC)CCCOc1ccc2c(=O)c3ccc(Cl)cc3n(CCCN(CC)CC)c2c1 [T5.5] | IC50 ([4]; read-out: IC50 MSLCs, Table 4): 8900 nM |
|  |  | 56 nM | 133 nM | CCN(CC)CCOc1ccc2c(c1)c(=O)c1ccc(Cl)cc1n2CCN(CC)CC [T2.2.5, 2-(2-diethylaminoethoxy)-6-chloro-10-(2-diethylaminoethyl)-9-acridone] | IC50 [2, 7]: 79 nM; IC50 [3, 8]: 86 nM; IVTI [4]: >316; IC50 ([4]; read-out: IC50, MSLCs, Table 2): > 25000 nM; IC50 ([4]; read-out: IC50 MSLCs, Table 4): > 25000 nM |
|  |  | 33 nM | 84 nM | CCN(CC)CCOc1cccc2c1c(=O)c1ccc(Cl)cc1n2CCN(CC)CC [T2.1.5] | IC50 ([4]; read-out: IC50 MSLCs, Table 4): > 25000 nM |
|  |  | 50 nM | 116 nM | CCN(CC)CCn1c2cc(Cl)ccc2c(=O)c2ccc(OCCN3CCCC3)cc21 [T8.5] |  |
| 76 nM | 61 nM |  |  | CCN(CC)CCCCCOc1ccc2c(=O)c3ccc(Cl)cc3[nH]c2c1 [T5, 3-(5-diethylaminopentyloxy)-6-chloro-9-acridone] | IC50 [2, 7]: 84 nM; IC50 [3, 8]: 125 nM; IVTI [4]: 119; IC50 ([4]; read-out: IC50, MSLCs, Table 2): 10000 nM; IC50 ([4]; read-out: IC50 MSLCs, Table 3): > 25000 nM |
| 270 nM | 390 nM |  |  | O=c1c2ccc(Cl)cc2[nH]c2cc(OCCN3CCCC3)ccc12 [T6] |  |
| 240 nM | 420 nM |  |  | CCN(CC)CCOc1cccc2[nH]c3cc(Cl)ccc3c(=O)c12 [T2.1] | IC50 ([4]; read-out: IC50 MSLCs, Table 3): > 25000 nM |

Source: US9399625B2, “Acridone compounds” (Oregon Health & Science University, priority 2006, dated 2016)
